Where “and” joins values, the source holds several entries; their conditions need not be identical. Identical values can stand only once.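 1) Cells in 96-well plates. 2) Compound, 48 h, 5 concentrations. 3) Linear interpolation between surrounding doses. 4) Unreached endpoint = highest concentration. GI50: concentration for 50% inhibition of growth. TGI is the concentration that stops growth completely.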

This assay relates to MDA-MB-468 breast. Kind of assay: growth of human tumour cells (NCI), 48 h.
In the case of `C=C(C=O)[C@@H]1CC[C@]2(C)[C@H](CC=C3[C@H]4[C@@H](C)[C@H](C)CC[C@]4(C(=O)OC)CC[C@]32C)[C@@]1(C)CCC#N`, the GI50 was 1600 nM and the TGI was found to be 3240 nM. For `c1ccc(-c2n(Cc3ccc4ccccc4n3)c3ccccc3[n+]2Cc2ccc3ccccc3n2)cc1`, in that order: 105 nM and 512 nM. `CC(C)[C@@H](C(=O)O[C@@H]1/C=C/C(=O)O[C@@H](C)CCC/C=C/[C@@H]2C[C@H](O)C[C@H]21)[N+](C)(C)C`: the GI50 was above 100000 nM and the TGI was above 100000 nM. In the case of `COCCNc1ccc2ncc(C#Cc3cncc(C(=O)Nc4ccc(CN5CCN(C)CC5)c(C(F)(F)F)c4)c3)n2n1`, the GI50 was 101 nM and the TGI was determined as 260 nM. For `COC(=O)[C@]12CC[C@@H](C)[C@H](C)[C@@H]1C1=CC[C@@H]3[C@@]4(C)C(c5ncon5)=C[C@@](C)(CO)C4=CC[C@@]3(C)[C@]1(C)CC2`, in that order: 1950 nM and 3800 nM.

Regarding `Cc1cc(N(CCCNc2ccnc3cc(Cl)ccc23)Cc2cccs2)nc(Cl)n1`, the GI50 was 853 nM and the TGI stood at 5740 nM.

Turning to `O=C(Cc1ccc(/C=C/C(=O)c2ncc[nH]2)cc1)Nc1ccc(Br)cc1`, the GI50 is 1420 nM and the TGI amounted to 4090 nM. For `NC1=CC(=O)C(=O)c2cccnc21`, in that order: 10600 nM and 22500 nM.

Consider `COc1ccc2c(c1)c(CC(=O)[Se]CCC#N)c(C)n2C(=O)c1ccc(Cl)cc1`, for which the GI50 is 2500 nM and the TGI was 6930 nM. Regarding `Cc1cc2nc3ccc(N=Nc4ccc(N(C)C)cc4)cc3n(-c3ccccc3)c-2cc1=N`, the GI50 is 19.5 nM and the TGI was 199 nM. For the compound `COc1cc2c3c(cc4c5c(ccc4c3c1OC)OCO5)N(CCN(C)C)C2=O`, the GI50 is 73.1 nM and the TGI is 412 nM.

Consider `Cn1cc(-c2csc(-c3cn(CCN4CCOCC4)c4ccc(F)cc34)n2)c2cccnc21`, for which the GI50 is 2200 nM and the TGI is 8590 nM. As to `COc1cc(C(=O)/C=C/c2c(-c3ccc(F)cc3)nc3sccn23)cc(OC)c1OC`, the GI50 was 2810 nM and the TGI came to 13600 nM. Turning to `CC(=O)OC1CCC2(C)C(CCC3C2CCC2(C)C(C4=CC(=O)OC4)CCC32)C1` (configuration not stated), the GI50 was 5260 nM and the TGI worked out at 44900 nM. Take `Cc1ccc2c(n1)C(=O)C(Cl)=C(Nc1cccc(C(C)C)c1)C2=O`: the GI50 was 1200 nM and the TGI stood at 2610 nM. As to `Cc1cc(-c2ccccc2)c(C)n1Cc1ccc(Cl)cc1`, the GI50 was 1420 nM and the TGI is 7540 nM. For `O=C1CC(c2ccccc2)Cc2nc3ccc(Cl)cc3cc21` (configuration not stated), in that order: 2860 nM and above 26100 nM. For `C[C@@H]1CN(Cc2ccc(/C=C/c3n[nH]c4ccc5nc(-c6cn[nH]c6C(F)(F)F)c6c(c5c34)CCCC6)cc2)C[C@H](C)O1`, in that order: 5890 nM and 22200 nM. For `C=C(C)[C@@H]1CC[C@]2(COS(C)(=O)=O)CC[C@]3(C)[C@H](CC[C@@H]4[C@@]5(C)CCCNC(C)(C)[C@@H]5CC[C@]43C)[C@@H]12`, in that order: 1750 nM and 3230 nM. Take `COC(=O)Nc1nc2c(OC)c(OC)c(OC)cc2[nH]1`: the GI50 was 14300 nM and the TGI is above 77300 nM. For `O=C1C2C(C(=O)[N]1[Hg][c]1ccccc1)C1(Cl)C(Cl)=C(Cl)C2(Cl)C1(Cl)Cl` (configuration not stated), in that order: 233 nM and 728 nM.

As to `O=C(c1ccc(O)cc1)c1ccc(C(=O)c2ccc(O)cc2)cc1`, the GI50 is 6500 nM and the TGI is above 100000 nM.

Take `CCOC(=O)Nc1nc2c(F)c(F)c(F)cc2s1`: the GI50 was 53900 nM and the TGI is above 100000 nM. For `COc1ccc(/C=C/c2nc(N3CCOCC3)c3cc(F)c(F)cc3n2)cc1OC`, in that order: 748 nM and 8030 nM.

In the case of `O=C1Nc2ccccc2C12CC(c1ccccc1)=NN2` (configuration not stated), the GI50 is 6960 nM and the TGI is above 100000 nM.

Take `O=C1C(N2CCN(c3ccccc3)CC2)=C(Cl)C(=O)c2ncccc21`: the GI50 is 1590 nM and the TGI came out at 3160 nM. Regarding `COc1ccc(C(=O)Nc2ncc(Cc3ccc(F)cc3)s2)cc1`, the GI50 is 362 nM and the TGI is above 100000 nM. In the case of `CN1CCN(c2nc(-c3csc(-c4ccccc4)n3)cc3ccccc23)CC1`, the GI50 is 1740 nM and the TGI was 4010 nM. With `NC(=O)Nc1ccc2ncnc(Nc3ccc(Cl)cc3)c2c1`, the GI50 was 1430 nM and the TGI is 8280 nM. For `Cc1cc[c-]cc1.Fc1c[c-]c(-c2ccccn2)c(F)c1.N#CCC[PH+](CCC#N)c1ccccc1.[Pt+2]`, in that order: 2880 nM and 9110 nM. For `COc1cc(C2c3cc4c(cc3C3OC(=O)C2C3CO)OCO4)cc(OC)c1OC` (configuration not stated), in that order: below 10 nM and above 100000 nM. As for `Clc1ccccc1-c1nc2ccccc2[nH]1`, the GI50 is 37000 nM and the TGI was above 100000 nM. Consider `CC(C)(C)c1ccc(C(=O)N/N=C/c2ccc(O)cc2O)cc1`, for which the GI50 was 396 nM and the TGI was found to be 2240 nM. For `COc1cc(Nc2ncc3c(n2)-c2ccc(Cl)cc2C(c2c(F)cccc2OC)=NC3)ccc1C(=O)O`, in that order: 45.6 nM and 19900 nM. Turning to `CC1=C[C@H]2c3c(c(O)c(O)c4oc5cc(O)cc(O)c5c(=O)c34)[C@H](c3cc(O)c(O)c4oc5cc(O)cc(O)c5c(=O)c34)[C@H]2C(C)(C)C1`, the GI50 is 2070 nM; the TGI was 5670 nM and 6250 nM. With `Nc1c(C(=O)Nc2cccc3ccccc23)sc2nc3c(cc12)CCCC3`, the GI50 is 327 nM and the TGI is above 100000 nM.

As for `Cc1cc(C)cc(Nc2nccc(-c3c(-c4ccc(F)cc4)ncn3C3CCNCC3)n2)c1`, the GI50 was 1140 nM and the TGI was 2760 nM. On to `Oc1c(I)cc(I)cc1CNCCCN(Cc1ccccn1)Cc1ccccn1`, for which the GI50 was 1010 nM and the TGI came out at 2340 nM. Take `c1ccc(Cn2cc3c(c2)-c2oncc2CC3)cc1`: the GI50 was 331 nM. On to `Cc1ccc(C(=O)Nc2ccc(CN3CCN(C)CC3)c(C(F)(F)F)c2)cc1C#Cc1cncc2ncccc12`, for which the GI50 was 1460 nM and the TGI was 18500 nM. On to `O=C(O)c1cn(C2CC2)c2cc(N3CCN(S(=O)(=O)c4ccc(Cl)c(Cl)c4)CC3)c(F)cc2c1=O`, for which the GI50 is 2240 nM and the TGI came to 6890 nM. `O=C1NC(=O)c2c1c1c3ccccc3ccc1c1[nH]c3ccc(Br)cc3c21`: the GI50 was 1560 nM and the TGI came out at 3990 nM.

As for `COc1ccc(-c2nnc3n(C)c(=O)c4ccccc4n23)cc1O`, the GI50 was 1210 nM and the TGI turned out to be 14000 nM. For `O=C(Cc1ccccc1)Nc1nnc(CCSCCc2nnc(NC(=O)Cc3ccccc3)s2)s1`, in that order: 36000 nM and above 100000 nM. As for `CCN(CC)c1ccc(/C=C/C(=O)c2cccc(NS(C)(=O)=O)c2)cc1`, the GI50 is 3840 nM and the TGI is above 100000 nM. Consider `COc1ccc(N2CCN(CC(=O)N3CCN(c4nnc(-c5ccccc5)c(-c5ccccc5)n4)CC3)CC2)cc1`, for which the GI50 is 2440 nM and the TGI stood at 12800 nM. On to `O=C1OCC2=C1C(c1cccc(F)c1)c1cc3c(cc1N2CCO)OCCO3` (configuration not stated), for which the GI50 is 125 nM.
